Reference: patent US20230130102A1, “Na/K-ATPase LIGANDS AND USE THEREOF FOR TREATMENT OF CANCER” (Marshall University Research Corporation, priority 2019, published 2023)

Assays:
DU145 derived subclones = experiment: Western blot / immunostaining of EMT markers, Src/FAK activation and proliferation markers in DU145 derived subclones; type: cell-based, human; details: subclone 2 cells, PP2 treatment (24 hours)
[1] = target: T1, α1 NKA/Src receptor complex (Sus scrofa, UniProt P05024); experiment: ouabain-induced Src/ERK activation in LLC-PK1 cells (immunostaining, Western blot); type: cell-based, pig; details: baseline
T1 construct: endogenous in cells; host or cells: LLC-PK1
Experimental: Western blot, Immunoprecipitation and Immunostaining. Cells were grown to 100% confluency and Western blot were performed as described before. Images were quantified with ImageJ software from NIH. Immunoprecipitation studies were performed as described before. α1 NKA immunostaining was performed by growing cells on sterilized coverslips in 6 well tissue culture plates and permeabilization/fixation with ice-cold methanol followed by blocking with 5% horse serum and 0.1% Triton X-100 in 1× Phosphate buffered saline (PBS) for 30 minutes. Coverslips were then stained with an anti-α1 NKA antibody (Millipore, Cat #05-369) at 1:100 dilution in 1% BSA (Bovine Serum Albumin) containing 1×PBS solution for overnight. Next day after three washes, coverslips were stained with Alexa Fluor 488 conjugated anti-mouse secondary antibody (Thermo-Fisher) for 1 hour, washed extensively and then imaged using a fluorescent microscope with GFP filter or confocal microscope (LEICA-DMIRE2). E-cadherin and occludin immunostaining was performed in a similar manner. Phospho-Src, phospho ERK1/2 immunostaining were performed as described before and images were taken with a LEICA DMIRE2 confocal microscope.
Characterization of MB5 activity on the NKA receptor function known as the NKA/Src binary receptor mechanism was conducted in a pig kidney epithelial cells (LLC-PK1)-based platform using immunostaining and Western blot analyses. […] The change of NKA conformation that occurs upon binding of agonists such as ouabain, results in the release and activation of the Src kinase domain from the “Naktide” site of NKA CD3, while the other interaction (constitutive) persists between NKA CD2 and the SH2 domain of Src. […] In LLC-PK1-derived cells with low NKA receptor constitutive activity due to substantial reduction (over 80%) of α1 NKA expression by siRNA (PY17 cells), increased basal Src and ERK activity is observed due to the abnormally high amount of Src kinase that remains in an active conformation. […]

YFP-tagged α1 NKA = target: T2, YFP-tagged α1 NKA (Rattus norvegicus, UniProt P06685); experiment: ouabain-induced α1 NKA endocytosis in YFP-α1-TCN cells; type: cell-based; details: TCN-YFP α1 cells
T2 construct: expressed in transfected cells; host or cells: YFP-α1-TCN cells
Experimental: It is appreciated that ouabain induces Src/ERK activation (increased protein phosphorylation) of LLC-PK1 cells by binding to α1 NKA and thereby initiates a signaling cascade which results in the endocytosis of the α1 NKA to terminate the signaling.
α1 NKA endocytosis assay. Endocytosis assay was performed as described before.
Characterization of MB5 activity on the NKA receptor function known as the NKA/Src binary receptor mechanism was conducted in a pig kidney epithelial cells (LLC-PK1)-based platform using immunostaining and Western blot analyses. […] The change of NKA conformation that occurs upon binding of agonists such as ouabain, results in the release and activation of the Src kinase domain from the “Naktide” site of NKA CD3, while the other interaction (constitutive) persists between NKA CD2 and the SH2 domain of Src.

α1 NKA/Src receptor = experiment: multi-step assay of MB5 derivatives (NKA and E-cadherin expression, 3D-spheroid invasion); type: cell-based; details: for potency relative to MB5: ability to restore NKA and E-cadherin expression and 3D-spheroid invasion data
Text: A multi-step assay was further designed to identify which compounds among the MB5 derivatives could be developed as an anti-cancer agent in terms of their potential to stop tumor invasion and growth. This multi-step assay included: (A) an ATPase activity assay- to confirm the binding of derivatives to NKA; (B) an assay to measure inhibition of ouabain-induced ERK activation and NKA endocytosis as well as basal Src/ERK/endocytotic activity in PY-17 cells (NKA/Src inverse agonist); (C) an assay to measure the ability to increase the expression of α1 NKA and E-cadherin level and decrease mesenchymal markers (ZEB1, SNAIL, vimentin) and Myc in cancer cells; (D) a 3D culture to test the anti-invasive and anti-growth potential of spheroids; and (E) an in vivo tumor xenograft model (by transplantation into NOD/SCOD mice). Upon analysis of the results of these experiments, it was believed that some of the MB5 derivative compounds show better or similar properties than MB5 as shown for certain of the compounds in FIGS. 6A-6G. Examples of experiments testing the derivatives are further provided for MIIRMB5 D1 (FIGS. 7A-7B), MIIRMB5 D3 (FIGS. 8A-8C), MIIRMB5 D4 (FIGS. 9A-9C), MIIRMB5 D5 (FIGS. 10A-10C), MIIRMB5 D6 (FIGS. 11A-11C), MIIRMB5 D7 (FIGS. 12A-12B), MIIRMB5 D13 (FIGS. 13A-13C), MIIRMB5 D14 (FIGS. 14A-14C), and MIIRMB5 D15 (FIGS. 15A-15C).

CC(C)(C)n1nc(-c2ccc(Cl)cc2)c2c(N)ncnc21 [PP2, reference compound]
E-cadherin expression (DU145 derived subclones): increase in E-cadherin expression

C[C@@H]1O[C@@H](O[C@H]2C[C@@H](O)[C@]3(CO)[C@H]4[C@H](O)C[C@]5(C)[C@@H](C6=CC(=O)OC6)CC[C@]5(O)[C@@H]4CC[C@]3(O)C2)[C@H](O)[C@H](O)[C@H]1O [ouabain, reference compound]
ERK activation / NKA receptor function by the compound alone [1]: activated ERK signal
α1 NKA internalization (endocytosis) by the compound alone (YFP-tagged α1 NKA): induced α1 NKA internalization (endocytosis)

O=S1(=O)c2cccc(O)c2Oc2c1ccc(O)c2O [MIIRMB5 D13]
effective concentration / dosage (α1 NKA/Src receptor; NKA and E-cadherin expression, 3D-spheroid invasion): about 100 nM

O=c1[nH]c2c(ccc3c(=O)c4cccc(O)c4oc32)o1 [MIIRMB5 D3]
potency relative to MB5 (α1 NKA/Src receptor): about 10 fold

Nc1c(O)ccc2c(=O)c3cccc(O)c3oc12 [MIIRMB5 D4]
potency relative to MB5 (α1 NKA/Src receptor): about 10 fold
